Entries after “also recorded” stand apart in the source; their conditions may differ. One block for each molecule: values may come before it.
What was measured:
Flk-1 [1] = target: T1, Flk-1 (Mus musculus, UniProt P35918, P25T); experiment: [3H]thymidine incorporation (mitogenic response) in Flk-1-expressing NIH 3T3 cells; format: cell-based; design: the full-length Flk-1 cDNA was cloned into the mammalian expression vector PCMV; expressed in transfected cells; details: 3T3 Flk-1 cell line
Description: The dominant-negative potential of Flk-1 TM was first examined by measuring its influence on the mitogenic response of Flk-1-expressing NIH 3T3 cells after superinfection with the Flk-1 TM virus.

Flk-1 [2] = target: T1, Flk-1; experiment: 125I-VEGF competition binding to COS-1 cells transiently expressing Flk-1; design: the full-length Flk-1 cDNA was cloned into the mammalian expression vector PCMV; expressed in transfected cells; host or cells: COS-1 (transient, CMV-promoter vector); details: for competition with binding of 125I-VEGF: Flk-1 transfected COS-1 cells
Flk-1 [3] = target: T1, Flk-1; experiment: VEGF-induced autophosphorylation of Flk-1 in COS cells; format: cell-based; design: expressed in transfected cells; dose or concentration left out as unconfirmed; details: COS1 cells transiently expressing Flk-1, stimulated with VEGF
Flk-1 [4] = target: T1, Flk-1; experiment: Cellular Flk-1 assay: VEGF-stimulated Flk-1 receptor autophosphorylation, antiphosphotyrosine Western blot; format: cell-based; design: expressed in transfected cells; host or cells: NIH 3T3 (3T3 Flk-1 cell line); details: test concentration 100 μM, FIG. 17, NIH3T3 cells expressing Flk-1
Description: FIG. 17. Inhibition of VEGF stipulatory activity of Flk-1. Test compounds and VEGF were co-incubated on cells expressing the Flk-1 receptor. The level of tyrosine phosphorylation was measured in a Western blot format using an antiphosphotyrosine antibody. […] (Compounds A7, A8, and A10 were toxic to these cells resulting in cell death.).
Organic compounds that modulate Flk-1 receptor mediated signal transduction can be assayed in a cellular Flk-1 assay wherein modulation of Flk-1 receptor autophosphorylation is measured using an antiphosphotyrosine antibody. In the example shown below, the results are analyzed using a Western blot of electrophoresed cell lysates. Levels of phosphorylation as be measured by other techniques known in the art.
NIH3T3 cells expressing high levels of Flk-1 were seeded in 12-well plates at 250,000 cells/well in DMEM+0.5% calf serum and incubated overnight at 37° C. plus or minus the test substance. […]
For the Western blot assay, forty microliters of saved supernatant per lane were loaded onto a 7.5% SDS-PAGE gel (10 lanes/gel, 1.5 mm thick) and run at 120 V until the dye reached the bottom of the gel. […] Protein bands were detected by soaking the membrane in ECL chemiluminescence system (Amersham Corp., prepared by mixing equal volumes of reagent 1 and 2) for 1 minute and then exposing the film for about 1-10 minutes.

[5] = target: murine Flk-1 receptor (fetal liver kinase 1), full length, wild type, 180 kD (mouse) (UniProt P35918); experiment: cell-based or functional assay
[6] = target: T2, murine Flk-1 receptor (fetal liver kinase 1), full length, wild type, 180 kD (mouse, UniProt P35918 20-1345); experiment: competition binding of unlabeled VEGF against 10 pM ^125I-VEGF on COS-1 cells expressing Flk-1, analysis by Munson and Rodbard
T2 construct: Full-length Flk-1 cDNA in pCMV, transiently expressed in COS-1 cells; also stably expressed in NIH 3T3 cells; also called Flk-1 RTK; wild type Flk-1
Description: FIGS. 9A and 9B. Flk-1 is a receptor for VEGF. […] The cells were lysed, Flk-1 receptor immunoprecipitated, and analyzed by polyacrylamide gel electrophoresis followed by autoradiography. Molecular size markers are indicated in kilodaltons. […] COS cells transiently expressing Flk-1 were removed from the plate and resuspended in binding medium (DMEM, 25 mM Hepes, 0.15% gelatin). […] The cells were washed twice with PBS/0.1% BSA and counted in a gamma counter.
Ligand binding experiments were performed as described previously (Schumacher, R. et al., 1991, J. Biol. Chem. 266: 19288-19295), COS-1 cells were grown in a 15-cm culture dish in DMEM for 48 h after transfection. Cells were then washed carefully with PBS and incubated with 5 ml of 25 mM EDTA in PBS for 10 min. Cells were then removed from the plate, washed once with binding buffer (DMEM, 25 mM HEPES, pH 7.5, 0.15% gelatin) and resuspended in 5 ml of binding buffer to determine the cell number. […] Data obtained were analyzed by the method of Munson, P. J. and Rodbard, D. (1980 Anal. Biochem. 107:220-235).

[7] = target: T3, Flk-1 TM, truncated transdominant-negative Flk-1 receptor mutant (amino acids 1 through 806), 130 kD (mouse, UniProt P35918 20-806); experiment: ^125I-VEGF binding to 3T3 Flk-1/Flk-1 TM cells against the parental 3T3 Flk-1 cells
T3 construct: Lacks the 561 C-terminal amino acids of the intracellular kinase domain; keeps the transmembrane domain and 23 residues of the cytoplasmic domain; A BglII/HpaI linker with a stop codon (5' GTC ATG GAT CTT CGT TAA 3') may add or change a few C-terminal residues; Expressed in cells (COS, NIH 3T3); also called truncated Flk-1 receptor; pLXSN Flk-1 TM cl.1
T3 sequence (P35918 other isoform, or with tags, fused parts or gaps mutant): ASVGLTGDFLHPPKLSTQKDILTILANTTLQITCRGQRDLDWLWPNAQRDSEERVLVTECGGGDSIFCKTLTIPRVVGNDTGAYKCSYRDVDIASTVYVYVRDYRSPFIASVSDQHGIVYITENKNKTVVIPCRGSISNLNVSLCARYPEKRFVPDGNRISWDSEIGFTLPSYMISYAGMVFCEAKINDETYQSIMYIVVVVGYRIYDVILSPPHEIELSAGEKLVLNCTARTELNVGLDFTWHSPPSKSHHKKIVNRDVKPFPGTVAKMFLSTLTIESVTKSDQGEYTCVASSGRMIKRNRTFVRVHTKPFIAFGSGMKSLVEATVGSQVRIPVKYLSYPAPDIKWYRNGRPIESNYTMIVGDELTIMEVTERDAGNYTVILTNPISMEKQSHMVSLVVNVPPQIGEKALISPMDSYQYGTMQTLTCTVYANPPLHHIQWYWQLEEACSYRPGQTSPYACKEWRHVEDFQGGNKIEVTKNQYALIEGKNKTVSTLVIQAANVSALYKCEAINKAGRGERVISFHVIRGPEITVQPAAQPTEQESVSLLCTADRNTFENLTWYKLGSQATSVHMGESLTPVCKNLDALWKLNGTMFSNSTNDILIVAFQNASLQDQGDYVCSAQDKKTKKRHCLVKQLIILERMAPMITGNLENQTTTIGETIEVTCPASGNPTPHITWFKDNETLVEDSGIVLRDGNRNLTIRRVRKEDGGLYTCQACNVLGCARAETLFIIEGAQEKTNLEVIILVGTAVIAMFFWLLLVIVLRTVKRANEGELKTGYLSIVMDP

T1 sequence (P35918 with tags, fused parts or gaps P25T limits assumed): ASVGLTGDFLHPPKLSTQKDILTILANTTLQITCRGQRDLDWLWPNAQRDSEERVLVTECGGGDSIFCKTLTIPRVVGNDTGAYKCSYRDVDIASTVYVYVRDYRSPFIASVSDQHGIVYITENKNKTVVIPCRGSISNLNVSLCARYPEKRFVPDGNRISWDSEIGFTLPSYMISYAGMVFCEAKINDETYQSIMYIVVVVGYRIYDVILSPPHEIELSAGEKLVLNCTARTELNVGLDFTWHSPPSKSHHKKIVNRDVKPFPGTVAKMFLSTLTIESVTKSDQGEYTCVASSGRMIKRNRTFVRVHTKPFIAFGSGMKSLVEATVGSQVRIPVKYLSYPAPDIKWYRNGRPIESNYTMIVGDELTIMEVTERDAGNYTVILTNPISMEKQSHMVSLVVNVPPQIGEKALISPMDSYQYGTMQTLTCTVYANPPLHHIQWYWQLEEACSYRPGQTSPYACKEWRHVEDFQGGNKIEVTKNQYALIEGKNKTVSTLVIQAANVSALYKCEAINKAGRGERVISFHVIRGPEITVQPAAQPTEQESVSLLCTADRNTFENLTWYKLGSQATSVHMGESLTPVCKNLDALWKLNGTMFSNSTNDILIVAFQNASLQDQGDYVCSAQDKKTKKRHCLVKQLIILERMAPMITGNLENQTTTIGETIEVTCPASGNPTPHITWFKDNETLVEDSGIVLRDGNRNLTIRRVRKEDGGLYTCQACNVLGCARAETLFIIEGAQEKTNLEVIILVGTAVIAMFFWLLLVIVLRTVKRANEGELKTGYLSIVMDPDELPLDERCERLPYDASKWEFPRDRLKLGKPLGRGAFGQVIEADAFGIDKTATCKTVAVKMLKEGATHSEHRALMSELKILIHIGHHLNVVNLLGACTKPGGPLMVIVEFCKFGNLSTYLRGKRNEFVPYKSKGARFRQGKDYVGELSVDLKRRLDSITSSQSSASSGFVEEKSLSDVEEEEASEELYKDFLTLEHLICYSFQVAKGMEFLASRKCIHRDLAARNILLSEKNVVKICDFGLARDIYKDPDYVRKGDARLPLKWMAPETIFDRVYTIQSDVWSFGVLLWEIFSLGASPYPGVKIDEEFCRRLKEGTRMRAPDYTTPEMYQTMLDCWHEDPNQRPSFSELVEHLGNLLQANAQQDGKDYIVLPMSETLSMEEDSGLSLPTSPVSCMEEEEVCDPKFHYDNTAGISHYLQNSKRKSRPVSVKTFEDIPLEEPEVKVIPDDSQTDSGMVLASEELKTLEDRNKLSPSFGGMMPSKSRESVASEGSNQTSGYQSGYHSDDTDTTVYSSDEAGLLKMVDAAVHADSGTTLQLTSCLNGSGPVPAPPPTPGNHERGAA
murine Flk-1 receptor (fetal liver kinase 1), full length, wild type, 180 kD (mouse), sequence (P35918 other isoform, or with tags, fused parts or gaps limits assumed): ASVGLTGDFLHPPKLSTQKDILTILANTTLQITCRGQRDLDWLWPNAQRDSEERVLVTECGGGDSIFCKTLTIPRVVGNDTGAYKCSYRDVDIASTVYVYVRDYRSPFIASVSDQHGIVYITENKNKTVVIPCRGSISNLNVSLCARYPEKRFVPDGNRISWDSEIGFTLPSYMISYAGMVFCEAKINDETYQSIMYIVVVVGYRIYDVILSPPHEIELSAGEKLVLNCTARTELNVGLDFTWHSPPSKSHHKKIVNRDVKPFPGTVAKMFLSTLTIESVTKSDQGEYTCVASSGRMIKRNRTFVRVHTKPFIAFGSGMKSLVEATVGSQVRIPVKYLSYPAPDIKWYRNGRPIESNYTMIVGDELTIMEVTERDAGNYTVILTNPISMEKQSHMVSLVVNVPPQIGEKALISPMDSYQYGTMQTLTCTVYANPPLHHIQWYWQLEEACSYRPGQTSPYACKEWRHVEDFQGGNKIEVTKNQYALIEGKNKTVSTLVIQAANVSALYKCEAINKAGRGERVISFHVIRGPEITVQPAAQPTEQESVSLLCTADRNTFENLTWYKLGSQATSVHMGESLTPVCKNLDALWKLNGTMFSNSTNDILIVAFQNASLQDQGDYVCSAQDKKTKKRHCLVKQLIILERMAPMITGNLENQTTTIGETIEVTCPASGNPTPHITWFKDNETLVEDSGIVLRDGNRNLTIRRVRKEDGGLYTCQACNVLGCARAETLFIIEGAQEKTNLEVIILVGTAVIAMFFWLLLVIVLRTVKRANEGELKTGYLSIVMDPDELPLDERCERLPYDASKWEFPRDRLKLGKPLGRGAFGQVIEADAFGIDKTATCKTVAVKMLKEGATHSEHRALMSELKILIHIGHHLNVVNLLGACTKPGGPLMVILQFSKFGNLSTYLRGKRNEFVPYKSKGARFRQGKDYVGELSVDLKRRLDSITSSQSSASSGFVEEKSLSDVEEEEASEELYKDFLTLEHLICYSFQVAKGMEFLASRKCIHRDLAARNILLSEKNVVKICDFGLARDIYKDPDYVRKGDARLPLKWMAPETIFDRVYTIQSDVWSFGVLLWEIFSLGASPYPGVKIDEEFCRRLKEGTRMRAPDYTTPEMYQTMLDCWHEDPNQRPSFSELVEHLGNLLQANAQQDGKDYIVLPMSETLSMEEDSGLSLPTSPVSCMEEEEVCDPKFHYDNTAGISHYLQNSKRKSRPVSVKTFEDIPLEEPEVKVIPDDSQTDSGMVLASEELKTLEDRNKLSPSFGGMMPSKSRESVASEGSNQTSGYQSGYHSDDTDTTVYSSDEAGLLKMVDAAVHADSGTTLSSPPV
T2 sequence (P35918 other isoform, or with tags, fused parts or gaps limits assumed): as above

Molecule: vascular endothelial growth factor [VEGF]
EC50 (Flk-1 [1]): ~0.1 nM
concentration giving maximal stimulation of [3H] thymidine incorporation (Flk-1 [1]): 500 pM
Kd (Flk-1 [2]; Flk-1 expressing COS-1 cells, 125I-VEGF, 15° C., 90 min): ~0.1 nM
competition with binding of 125I-VEGF (Flk-1 [2]): competed
tyrosine phosphorylation of the 180 kD Flk-1 receptor (Flk-1 [3]): significant induction

Molecule: PDGF-BB: growth factor used as specificity control in 125I-VEGF competition binding [reference compound]
competition with binding of 125I-VEGF (Flk-1 [2]): did not compete

Molecule: c1ccc(-c2cnc3cc4ccccc4cc3n2)cc1 [Compound A14]
inhibition of VEGF-stimulated Flk-1 receptor phosphorylation (Flk-1 [4]): almost completely; also recorded: completely inhibited

B1: unlabeled VEGF (164 amino acid form), partially purified from conditioned media of COS-1 cells transiently expressing VEGF (ligand, UniProt Q00731-2 27-190, looked up)
chain: APTTEGEQKSHEVIKFMDVYQRSYCRPIETLVDIFQEYPDEIEYIFKPSCVPLMRCAGCCNDEALECVPTSESNITMQIMRIKPHQSQHIGEMSFLQHSRCECRPKKDRTKPENHCEPCSERRKHLFVQDPQTCKCSCKNTDSRCKARQLELNERTCRCDKPRR
notes: Partially purified on heparin columns; also called unlabeled ligand
Kd [6]: ~0.1 nM

Results, then the molecule that gave them:

[^3H] thymidine incorporation in the 3T3 Flk-1 cell line, EC50 [5]: 0.1 nM
[^3H] thymidine incorporation in the 3T3 Flk-1 cell line, concentration of maximal stimulation [5]: 500 pM
Molecule: VEGF (preparation not specified) used for stimulation of cells (ligand)

fold increase of cell surface receptors against the parental 3T3 Flk-1 line [7]: 6 fold
B2: ^125I-labeled recombinant human VEGF (ligand, UniProt P15692-4 27-191, looked up)
chain: APMAEGGGQNHHEVVKFMDVYQRSYCHPIETLVDIFQEYPDEIEYIFKPSCVPLMRCGGCCNDEGLECVPTEESNITMQIMRIKPHQGQHIGEMSFLQHNKCECRPKKDRARQENPCGPCSERRKHLFVQDPQTCKCSCKNTDSRCKARQLELNERTCRCDKPRR
modifications: radioiodinated (^125I) by the procedure of Hunter and Greenwood; positions not given
notes: also called iodinated VEGF

From patent US7964399B2, “Cell line comprising vector encoding truncated FLK-1 receptor” (Max-Planck-Gesellschaft zur Forderung der Wissenschaften …, priority 1992, dated 2011)
